Reference: PMC10009750, “Development of Selective ADAMTS-5 Peptide Substrates to Monitor Proteinase Activity” (Journal of Medicinal Chemistry, 2023)
Non-standard residues stand in square brackets, D forms with d. No end group written: not given here. Tyr(3-NO2) = N[C@@H](Cc1ccc(O)c([N+](=O)[O-])c1)C(=O)O; 2Abz = Nc1ccccc1C(=O)O

Assays:
Assay type in all cases: biochemical
TS5-5 (ADAMTS-5) = target: T1, TS5-5 (ADAMTS-5) (Homo sapiens, UniProt Q9UNA0); test: Rate of cleavage of 3 and 26 by TS5-5 at different substrate concentrations; conditions: TS5-5 57 nM, after 1 h, 37 °C
T1 construct: ADAMTS-5 (i.e. TS5-5, residues 264–555); FLAG; made in house; host or cells: HEK293 cells (previously transfected stocks)
T1 sequence (Q9UNA0 264-555): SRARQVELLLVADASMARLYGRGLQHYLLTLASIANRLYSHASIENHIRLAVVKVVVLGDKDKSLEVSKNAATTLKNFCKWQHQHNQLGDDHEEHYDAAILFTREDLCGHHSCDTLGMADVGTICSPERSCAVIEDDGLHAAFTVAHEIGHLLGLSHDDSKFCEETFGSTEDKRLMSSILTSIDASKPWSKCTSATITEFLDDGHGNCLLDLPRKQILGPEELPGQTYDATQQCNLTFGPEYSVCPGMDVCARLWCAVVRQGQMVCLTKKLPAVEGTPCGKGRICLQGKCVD
Method: To test whether active TS5-5 had been purified, three concentrations of proteinase were assayed. […] A substrate-only background control was also added in triplicate (180 μL). The resultant solutions were incubated at 37 °C (30 min). […] TNC buffer with 0.02% (v/v) Brij-35 (20 μL) was also added to background control wells. The change in RFU was measured at 37 °C for 1 h, with readings every 20 s. Following subtraction of background fluorescence intensity, linear regression analysis of the linear part of each curve was used to determine the cleavage rate, which was expressed as the mean ± SEM in RFU s^–1. For cases where a single concentration of TS5-5 or TS4-4 was assayed, the same procedure was used but with 0.005% (v/v) Brij-35 and using the 5-FAM-AE↓LQGRPISIAK-TAMRA substrate for TS4-4 (0.56 μM). To convert cleavage rates to nM s^–1 nM^–1, the rate in RFU s^–1 was divided by the final concentration of proteinase (nM), then divided by the gradient of the calibration curve for Abz or 5-FAM (expressed in RFU nM^–1).
This was carried out according to the procedure described for activity studies of ADAMTSs with a single concentration of proteinase, except that a range of substrate concentrations was used for 3 and 26 (20 to 0.63 μM). Additionally, control wells for each substrate concentration were used in single replicate. The final concentration of TS5-5 was 57 nM.

[1] = test system: MMP-9ΔC (catalytic domain of MMP-9); test: Selectivity studies: cleavage of FRET peptide substrates by MMP-9ΔC; conditions: ratio of cleavage rates, substrate 20 μM
Method: (§1) All proteinase assays were performed at 37 °C in a SpectraMax M5 spectrophotometer (Molecular Devices, San Jose, USA) using a 96-well black microplate (Greiner bio-one, Stonehouse, UK) unless otherwise stated. […] N-TIMP-3 was purified as described previously[30] and CT-1746 was a gift from Dr. Yoshifumi Itoh (Kennedy Institute of Rheumatology, University of Oxford). All analyses were carried out using Prism 9 software (GraphPad, La Jolla, CA, USA).
(§2) Selectivity studies are described for Abz-TESE↓SRGAIY-Dpa-KK-NH2, the library parent peptide 3, and hit peptides 18–26. A solution of Abz-TESE↓SRGAIY-Dpa-KK-NH2 (22.22 μM) in freshly prepared TNC buffer with 0.005% (v/v) Brij-35 (90 μL) was added to a 96-well clear bottom microplate (Greiner bio-one, Stonehouse, UK) in triplicate. A substrate-only background control was also added in triplicate (90 μL). The resultant solutions were incubated at 37 °C (30 min). An ADAMTS or MMP proteinase was added to substrate wells (10 μL) to give a final proteinase concentration of either 50–90 nM (TS4-4), 25–200 nM (TS5-5), 5–10 nM (MMP-2ΔC), 30 nM (MMP-9ΔC), 92 nM (MMP-1), or 3 μM (MMP-3). TNC buffer with 0.005% (v/v) Brij-35 was added to substrate-only control wells (10 μL). The relative fluorescence intensity was measured at 37 °C for 1 h with readings every 20 s. Activity was read from underneath the microplate, which was covered with a low evaporation lid. […] For each ADAMTS and MMP proteinase, the assay was performed 2–4 times. […] Final rates were expressed as a percentage of substrate cleavage by TS5-5 (mean ± SEM) or in μM s^–1 μM^–1 of proteinase.

[2] = test system: MMP-2ΔC (catalytic domain of MMP-2); test: Selectivity studies: cleavage of FRET peptide substrates by MMP-2ΔC; conditions: substrate 20 μM; for preference (selectivity) for TS5-5 over MMP-2ΔC: ratio of cleavage rates
Method: as §1, §2

TS4-4 (ADAMTS-4) = target: T2, TS4-4 (ADAMTS-4) (Homo sapiens, UniProt O75173); test: Selectivity studies: cleavage of FRET peptide substrates by TS4-4; conditions: substrate 20 μM; for preference (selectivity) for TS5-5 over TS4-4: ratio of cleavage rates; for rate of cleavage by TS4-4: TS4-4 50–90 nM, mean of 3–4 independent experiments in triplicate
T2 construct: TS4-4, TS5-5 = catalytic and disintegrin domains; made in house; host or cells: HEK293 cells (previously transfected stocks)
T2 sequence (O75173 213-519 limits assumed): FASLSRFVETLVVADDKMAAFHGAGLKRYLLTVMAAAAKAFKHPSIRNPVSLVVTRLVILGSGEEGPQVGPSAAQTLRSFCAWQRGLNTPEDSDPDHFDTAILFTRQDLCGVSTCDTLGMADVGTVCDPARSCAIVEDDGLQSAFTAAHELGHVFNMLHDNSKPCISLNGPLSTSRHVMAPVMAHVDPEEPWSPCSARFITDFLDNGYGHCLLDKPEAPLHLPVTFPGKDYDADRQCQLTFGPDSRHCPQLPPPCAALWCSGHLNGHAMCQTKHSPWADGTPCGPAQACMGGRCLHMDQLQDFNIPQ
Method: as §1, §2

[3] = TNC buffer with 0.005% (v/v) Brij-35, 37 °C
[4] = TNC buffer with 0.005% (v/v) Brij-35, 37 °C, mean of 2–8 independent experiments in triplicate

Substance	lowest concentration of substrate detectibly cleaved by TS5-5 (ΔRFU ≥ 300) (TS5-5 (ADAMTS-5)) [µM]	preference (selectivity) for TS5-5 over MMP-9ΔC [1] [fold]	preference (selectivity) for TS5-5 over MMP-2ΔC [2] [fold]	preference (selectivity) for TS5-5 over TS4-4 (TS4-4 (ADAMTS-4)) [fold]	rate of cleavage by TS4-4 (TS4-4 (ADAMTS-4); [3])	cleavage by MMP-2ΔC as a fraction (percentage) of TS5-5 cleavage of the current substrate [2, 4] [%]	cleavage by TS4-4 as a fraction (percentage) of TS5-5 cleavage of the current substrate (TS4-4 (ADAMTS-4); [4]) [%]
KY(NO2)SENESRGK(Abz)IYYKKG (K[Tyr(3-NO2)]SENESRGK(2Abz)IYYKKG) [Compound 26]	5	~548	~8	~13	0.08–0.10 μM s^–1 μM^–1		
KY(NO2)TESESRGK(Abz)IYYKKG (K[Tyr(3-NO2)]TESESRGK(Abz)IYYKKG) [Compound 3]	2.5	~2561	~10	~16	0.08–0.10 μM s^–1 μM^–1		
Abz-TESE↓SRGAIY-Dpa-KK-NH2 [current, ortho-aminobenzoyl(Abz)-TESE↓SRGAIY-N-3-[2,4-dinitrophenyl]-L-2,3-diaminopropionyl(Dpa)-KK-NH2, reference compound]		~213	~0.7	~5	0.090 μM s^–1 μM^–1	138	22
